In publication PMC7038073, “Substituted Piperazines as Novel Potential Radioprotective Agents” (Molecules, 2020):

Columns and labels:
[1] = WST-1 cytotoxicity test, Jurkat; format: cell-based; settings: human, Jurkat cells, read-out: relative viability (%) compared to untreated control
Procedure: (§1) In this study, the cytotoxic effects of nine new compounds (2, 3, 4, 5, 6, 7, 8, 9, 10) were tested on 10 human cell lines (nine cancer and one non-cancer cell line). The cell lines were treated with each compound at concentrations of 10 µM and 100 µM for 48 h. The proliferation capacity of the treated cells was determined by WST-1 test and compared against the proliferation rate of the untreated control cells (100%).
(§2) The cell lines Jurkat, MOLT-4, A2780, A549, HT-29, PANC-1, HeLa, MCF-7, SAOS-2, and MRC-5 (all purchased from Sigma Aldrich, Czech Republic) were included in this study. All cell lines were maintained according to the provider’s guidelines, and plated and treated in 96-well plates (500 to 30 × 10^3 cells per well). The tested compounds 2, 3, 4, 5, 6, 7, 8, 9, and 10 were dissolved in 0.1% DMSO and kept in 10 mM stock solutions. Before use, the stock solution was diluted in culture media at ratios of 1:100 and 1:1000. The studied cell lines were treated with the compounds 2, 3, 4, 5, 6, 7, 8, 9, and 10 at concentrations of 10 and 100 µM for 48 h. Control cells were tested in culture media with and without DMSO (0.1%). The cells were also treated with 1 µM doxorubicin as a cytotoxicity control.
(§3) The WST-1 (2-(4-iodophenyl)-3-(4-nitrophenyl)-5-(2,4-disulfophenyl)-2H-tetrazolium, monosodium salt) test (Roche, Mannheim, Germany) was used according to the manufacturer’s protocol to determine cell viability in all 10 cell lines 48 h after treatment with the tested compounds. The cells were analyzed in a Tecan Infinite M200 spectrometer (Tecan Group, Männedorf, Switzerland) at 440 nm.

[2] = WST-1 cytotoxicity test, MCF-7; format: cell-based; settings: human, MCF-7 cells, read-out: relative viability (%) compared to untreated control; for viability at 48 h, 10 µM: MCF-7, 10 µM
Procedure: as §1, §2, §3

[3] = WST-1 cytotoxicity test, A549; format: cell-based; settings: human, A549 cells, read-out: relative viability (%) compared to untreated control; for viability at 48 h, 10 µM: A549, 10 µM
Procedure: as §1, §2, §3

[4] = system: A549 cells; test: MTT assay, IC50 and MTC; settings: for MTC (maximum tolerated concentration): 24 h of treatment; for IC50: Homo sapiens, A549, 24 h, read-out: IC50 ± SEM
Procedure: In further experiments, MTT (3-(4,5-di-methylthiazol-2-yl)-2,5-diphenyltetrazolium bromide) assay was employed to evaluate the toxicological indexes of the newly synthesized compounds, including IC50 (half-maximal inhibitory concentration) and MTC (maximum tolerated concentration).
IC50 and MTC were determined through MTT assays. The MTT assay was performed according to [35]. In brief, the A549 cell line was plated in 96-well plates (100 µL, 9 × 10^3 cells per well) and incubated overnight. The tested compounds were prepared in phosphate buffer saline (PBS; Sigma–Aldrich) and serially diluted in DMEM (Dulbecco’s Modified Eagle Medium). An untreated control was included as a viability standard in each plate. After 24 h of treatment, the viability of A549 cells was measured at 570 nm. All experiments were performed in triplicate. The GraphPad Prism statistics software v5.04 (GraphPad Software Inc., San Diego, CA, USA) was used to calculate the IC50 values for parameter nonlinear regression. Values are expressed as mean ± SEM.

[5] = WST-1 cytotoxicity test, SAOS-2; format: cell-based; settings: human, SAOS-2 cells, read-out: relative viability (%) compared to untreated control; for viability at 48 h, 10 µM: SAOS-2, 10 µM
Procedure: as §1, §2, §3

[6] = WST-1 cytotoxicity test, PANC-1; format: cell-based; settings: human, PANC-1 cells, read-out: relative viability (%) compared to untreated control; for viability at 48 h, 10 µM: PANC-1, 10 µM
Procedure: as §1, §2, §3

[7] = WST-1 cytotoxicity test, HT-29; format: cell-based; settings: human, HT-29 cells, read-out: relative viability (%) compared to untreated control; for viability at 48 h, 10 µM: HT-29, 10 µM
Procedure: as §1, §2, §3

[8] = WST-1 cytotoxicity test, MOLT-4; format: cell-based; settings: human, MOLT-4 cells, read-out: relative viability (%) compared to untreated control; for viability at 48 h, 10 µM: MOLT-4, 10 µM
Procedure: as §1, §2, §3

[9] = WST-1 cytotoxicity test, A2780; format: cell-based; settings: human, A2780 cells, read-out: relative viability (%) compared to untreated control; for viability at 48 h, 10 µM: A2780, 10 µM
Procedure: as §1, §2, §3

[10] = WST-1 cytotoxicity test, MRC-5; format: cell-based; settings: human, MRC-5 cells, read-out: relative viability (%) compared to untreated control; for viability at 48 h, 10 µM: MRC-5, 10 µM
Procedure: as §1, §2, §3

[11] = WST-1 cytotoxicity test, statements over all cell lines; format: cell-based, human; settings: human, 10 µM, across all the 10 cell lines tested, read-out: percentage of viable cells
Procedure: as §1, §2, §3

[12] = system: 10 human cell lines (nine cancer and one non-cancer cell line); test: as above; format: cell-based; settings: 48 h
Procedure: as §1, §2, §3

[13] = WST-1 cytotoxicity test, HeLa; format: cell-based; settings: human, HeLa cells, read-out: relative viability (%) compared to untreated control
Procedure: as §1, §2, §3

[14] = 48 h, WST-1, mean ± SD of three experiments
[15] = doxorubicin 1 µM cytotoxicity control, WST-1, mean ± SD
[16] = 100 µM, 48 h, WST-1, mean ± SD of three experiments

Row | Structure (SMILES) | viability at 48 h, 10 µM [1, 14] [%] | viability at 48 h, 10 µM [2, 14] [%] | viability at 48 h, 10 µM [3, 14] [%] | MTC (maximum tolerated concentration) ([4]; A549 cells, MTT) [mM] | IC50 [4] [µM] | viability at 48 h, 10 µM [5, 14] [%] | viability at 48 h, 10 µM [6, 14] [%] | viability at 48 h, 10 µM [7, 14] [%] | viability at 48 h, 10 µM [8, 14] [%] | viability at 48 h, 10 µM [9, 14] [%] | viability at 48 h, 10 µM [10, 14] [%] | melting point [°C] | viability at 48 h, 10 µM [13, 14] [%] | further results
1 | COc1ccc2nc3c(c(NCCN4CCNCC4)c2c1)CCCC3.Cl.Cl.Cl [Compound 2, 7-Methoxy-N-(2-(piperazin-1-yl)ethyl)-1,2,3,4-tetrahydroacridin-9-amine trihydrochloride] | 31 ± 14 | 15 ± 1 | 27 ± 3 | 0.002 | 40 ± 2 | 28 ± 2 | 39 ± 2 | 28 ± 6 | 0 | 44 ± 9 | 23 ± 2 | 172 to 173 | 25 ± 1 | viability at 48 h, 10 µM [11]: < 44%; cytotoxic effect (in words) ([12]; 10 µM, tested cell lines): highly cytotoxic
2 | COc1cccc2c1C(=O)c1c(O)c3c(c(O)c1C2=O)C[C@@](O)(C(=O)CO)C[C@@H]3O[C@H]1C[C@H](N)[C@H](O)[C@H](C)O1 [DOX, doxorubicin, reference compound] |  |  |  |  |  |  |  |  |  |  |  |  |  | viability at 48 h, 1 µM [1, 15]: 2%; viability at 48 h, 1 µM ([2]; MCF-7, doxorubicin 1 µM cytotoxicity control, WST-1, mean ± SD): 32 ± 3%; viability at 48 h, 1 µM ([3]; A549, doxorubicin 1 µM cytotoxicity control, WST-1, mean ± SD): 42 ± 11%; viability at 48 h, 1 µM ([5]; SAOS-2, doxorubicin 1 µM cytotoxicity control, WST-1, mean ± SD): 22 ± 4%; viability at 48 h, 1 µM ([6]; PANC-1, doxorubicin 1 µM cytotoxicity control, WST-1, mean ± SD): 78 ± 7%; viability at 48 h, 1 µM ([7]; HT-29, doxorubicin 1 µM cytotoxicity control, WST-1, mean ± SD): 55 ± 18%; viability at 48 h, 1 µM ([8]; MOLT-4, doxorubicin 1 µM cytotoxicity control, WST-1, mean ± SD): 1%; viability at 48 h, 1 µM ([9]; A2780, doxorubicin 1 µM cytotoxicity control, WST-1, mean ± SD): 8 ± 4%; viability at 48 h, 1 µM ([10]; MRC-5, doxorubicin 1 µM cytotoxicity control, WST-1, mean ± SD): 22 ± 2%; viability at 48 h, 1 µM [13, 15]: 76 ± 12%
3 | COc1ccc2nc3c(c(NCCN4CCN(CCO)CC4)c2c1)CCCC3.Cl.Cl.Cl [Compound 3, 7-Methoxy-N-{2-[4-(2-hydroxyethyl)piperazin-1-yl]ethyl}-1,2,3,4-tetrahydroacridin-9-amine trihydrochloride] | 95 ± 9 | 84 ± 9 | 94 ± 15 | 0.01 | 140 ± 10 | 80 ± 4 | 78 ± 6 | 85 ± 11 | 81 ± 13 | 84 ± 7 | 84 ± 2 | 157 to 158 | 104 ± 13 | viability at 48 h, 100 µM [1, 16]: 12 ± 5%; viability at 48 h, 100 µM ([2]; MCF-7, 100 µM, 48 h, WST-1, mean ± SD of three experiments): 10 ± 2%; viability at 48 h, 100 µM ([3]; A549, 100 µM, 48 h, WST-1, mean ± SD of three experiments): 13 ± 2%; IC50 fold higher than that for compound 2 ([4]; A549 cells, MTT): 3.5 fold; viability at 48 h, 100 µM ([5]; SAOS-2, 100 µM, 48 h, WST-1, mean ± SD of three experiments): 10 ± 2%; viability at 48 h, 100 µM ([6]; PANC-1, 100 µM, 48 h, WST-1, mean ± SD of three experiments): 30 ± 4%; viability at 48 h, 100 µM ([7]; HT-29, 100 µM, 48 h, WST-1, mean ± SD of three experiments): 14 ± 5%; viability at 48 h, 100 µM ([8]; MOLT-4, 100 µM, 48 h, WST-1, mean ± SD of three experiments): 2%; viability at 48 h, 100 µM ([9]; A2780, 100 µM, 48 h, WST-1, mean ± SD of three experiments): 20 ± 5%; viability at 48 h, 100 µM ([10]; MRC-5, 100 µM, 48 h, WST-1, mean ± SD of three experiments): 9 ± 6%; decrease of cell viability ([12]; 100 µM, all the tested cell lines): ≥ 70%; cytotoxic effect (in words) ([12]; 100 µM, studied cell lines): highly cytotoxic; viability at 48 h, 100 µM [13, 16]: 11 ± 3%
